Assay results as given in the supplement of paper PMC11208160.

Assay: recombinant barcode read abundance after kanamycin selection (control-corrected) (log10(CPM+1)); higher = more efficient recombination; sequences stand for … in AGTGCAGAGAAAATCGGCCAGTTTTCTCTGCCTGCAGTCCGCATGCCGT…AGATTTATGCAGCGGACTGCCTTTCTCCCAAAGTGATAAACCGGACAGTATCATGGACCGGTTTTCCCGGTAATCCGTATTTGCAAGGTTGGTTTCACT; site = the 11-nt target
How it was run: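 Recombination efficiency in this pooled E. coli screen uses counts per million of barcodes at recombinant junctions, averaged and corrected against the control. The reported form is log10(CPM+1). Two replicates were plated on chloramphenicol/ampicillin LB agar as control and two on chloramphenicol/ampicillin/kanamycin with 0.1 mM IPTG.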
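Note: IS621 recombinase and bridge RNA in Escherichia coli cells.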

Point of comparison: “GAGGTATCTTGGGTTCTAACCTGTTGCTT (site GAGGTATCTTA)”, “recombinant barcode read abundance (log10)” value 0.0893. Against it:
- GAGGGAGCTTGGGTTCTAACCTGTTGCAT (site GAGTGAGCTAT) — higher, 0.315
- GAGGGGACTTGGGTTCTAACCTGTTGCAG (site GAGGGGACTCT) — higher, 2.76
- GAGGGGACTTGGGTTCTAACCTGTTGCAG (site TCCTTCTCTAG) — higher, 0.307
- GAGGTATCTTGGGTTCTAACCTGTTGCGT (site GAGGTATCTAC) — within 0.2 log units, 0.252
- GAGGTATCTTGGGTTCTAACCTGTTGCGT (site GAGGTATCTTG) — higher, 0.303
- GAGGTATCTTGGGTTCTAACCTGTTGCTT (site GAGGTATCTAA) — higher, 0.35
- GAGGTCACTTGGGTTCTAACCTGTTGCTA (site GAGGTCACTTA) — higher, 2.26
- GAGGTCACTTGGGTTCTAACCTGTTGCTA (site TCTCCTCCTAT) — within 0.2 log units, 0.186
- GAGGTCCCTTGGGTTCTAACCTGTTGCGG (site CTCCCTGCTAG) — within 0.2 log units, 0.2
- GAGGTCCCTTGGGTTCTAACCTGTTGCGG (site GAGGTCCCTCC) — higher, 2.93
- GAGTACACTTGGGTTCTAACCTGTTGCGC (site AGCGCGCCTCA) — within 0.2 log units, 0.0967
- GAGTACACTTGGGTTCTAACCTGTTGCGC (site GAGTACACTGC) — higher, 2.53
- GAGTACCCTTGGGTTCTAACCTGTTGCCT (site GAGTACCCTAG) — higher, 1.96
- GAGTACCCTTGGGTTCTAACCTGTTGCCT (site GCGTACCCTAG) — within 0.2 log units, 0.162
- GAGTACCCTTGGGTTCTAACCTGTTGCCT (site GGGTACCCTAG) — higher, 0.619
- GAGTACCCTTGGGTTCTAACCTGTTGCCT (site GTGTACCCTAG) — within 0.2 log units, 0.0322
- GAGTAGACTTGGGTTCTAACCTGTTGCTT (site GAGTAGACTAA) — higher, 1.64
- GAGTAGACTTGGGTTCTAACCTGTTGCTT (site GAGTAGTCTAA) — higher, 1.22
- GAGTATGCTTGGGTTCTAACCTGTTGCCT (site GAGTATGCTAG) — higher, 1.72
- GAGTATGCTTGGGTTCTAACCTGTTGCCT (site GATTATGCTAG) — within 0.2 log units, 0.223
- GAGTATTCTTGGGTTCTAACCTGTTGCCT (site GAATATTCTAG) — higher, 1.2
- GAGTATTCTTGGGTTCTAACCTGTTGCCT (site GACTATTCTAG) — within 0.2 log units, 0.0264
- GAGTATTCTTGGGTTCTAACCTGTTGCCT (site GAGTATTCTAG) — higher, 1.16
- GAGTATTCTTGGGTTCTAACCTGTTGCCT (site GATTATTCTAG) — within 0.2 log units, 0.123
- GAGTCGTCTTGGGTTCTAACCTGTTGCCT (site GAGTCGCCTAG) — within 0.2 log units, 0.193
- GAGTCGTCTTGGGTTCTAACCTGTTGCCT (site GAGTCGTCTAG) — higher, 1.78
- GAGTCTACTTGGGTTCTAACCTGTTGCCA (site CCTATAGCTAA) — within 0.2 log units, 0.0951
- GAGTCTACTTGGGTTCTAACCTGTTGCCA (site GAGTCTACTTG) — higher, 0.317
- GAGTCTACTTGGGTTCTAACCTGTTGCCG (site GAGTCTACTCG) — higher, 0.562
- GAGTCTACTTGGGTTCTAACCTGTTGCCG (site GAGTCTACTCT) — within 0.2 log units, 0.0936
- GAGTTAACTTGGGTTCTAACCTGTTGCCG (site GAGTTAACTCG) — within 0.2 log units, 0.262
- GAGTTAACTTGGGTTCTAACCTGTTGCCG (site GTGTGAACTCG) — within 0.2 log units, 0.0546
- GAGTTCCCTTGGGTTCTAACCTGTTGCGT (site GAGTTACCTAC) — higher, 0.341
- GAGTTCCCTTGGGTTCTAACCTGTTGCGT (site GAGTTCCCTAC) — higher, 2.66
- GAGTTCCCTTGGGTTCTAACCTGTTGCGT (site GAGTTGCCTAC) — within 0.2 log units, 0.23
- GAGTTCCCTTGGGTTCTAACCTGTTGCGT (site GAGTTTCCTAC) — within 0.2 log units, 0.0134
- GAGTTGCCTTGGGTTCTAACCTGTTGCGT (site GAGTTACCTAC) — higher, 1.96
- GAGTTGCCTTGGGTTCTAACCTGTTGCGT (site GAGTTCCCTAC) — within 0.2 log units, 0.108
- GAGTTGCCTTGGGTTCTAACCTGTTGCGT (site GAGTTGCCTAC) — higher, 1.68
- GAGTTGCCTTGGGTTCTAACCTGTTGCGT (site GAGTTTCCTAC) — within 0.2 log units, 0.0593
- GAGTTTCCTTGGGTTCTAACCTGTTGCAG (site GAGCGTCCTCT) — within 0.2 log units, 0.118
- GAGTTTCCTTGGGTTCTAACCTGTTGCAG (site GAGTTTCCTCT) — higher, 0.343
- GATAGAGCTTGGGTTCTAACCTGTTGCCG (site GATAGAGCTCG) — higher, 0.772
- GATAGAGCTTGGGTTCTAACCTGTTGCCG (site GATATAGCTAG) — within 0.2 log units, 0
- GATAGGCCTTGGGTTCTAACCTGTTGCTT (site AATTGGCCTAA) — within 0.2 log units, 0.0314
- GATAGGCCTTGGGTTCTAACCTGTTGCTT (site GATAGGCCTAA) — higher, 0.371
- GATAGTACTTGGGTTCTAACCTGTTGCCT (site GATAGTACTAG) — higher, 1.48
- GATAGTACTTGGGTTCTAACCTGTTGCCT (site GATAGTCCTAG) — within 0.2 log units, 0.0718
- GATAGTACTTGGGTTCTAACCTGTTGCCT (site GATAGTGCTAG) — within 0.2 log units, 0.0995
- GATAGTACTTGGGTTCTAACCTGTTGCCT (site GATAGTTCTAG) — within 0.2 log units, 0.17
- GATAGTTCTTGGGTTCTAACCTGTTGCCT (site GATAGTACTAG) — within 0.2 log units, 0.0904
- GATAGTTCTTGGGTTCTAACCTGTTGCCT (site GATAGTCCTAG) — higher, 0.675
- GATAGTTCTTGGGTTCTAACCTGTTGCCT (site GATAGTGCTAG) — within 0.2 log units, 0.132
- GATAGTTCTTGGGTTCTAACCTGTTGCCT (site GATAGTTCTAG) — within 0.2 log units, 0.264
- GATCATCCTTGGGTTCTAACCTGTTGCCT (site GATCATCCTAG) — higher, 0.364
- GATCATCCTTGGGTTCTAACCTGTTGCCT (site GTTCATCCTAG) — within 0.2 log units, 0.0462
- GATCCATCTTGGGTTCTAACCTGTTGCCT (site GATCCATCTAG) — higher, 0.561
- GATCCATCTTGGGTTCTAACCTGTTGCCT (site GCTCCATCTAG) — within 0.2 log units, 0.251
- GATCCATCTTGGGTTCTAACCTGTTGCCT (site GGTCCATCTAG) — within 0.2 log units, 0.209
- GATCCATCTTGGGTTCTAACCTGTTGCCT (site GTTCCATCTAG) — within 0.2 log units, 0.142
- GATCCGTCTTGGGTTCTAACCTGTTGCGG (site GATCCGTCTCC) — within 0.2 log units, 0.136
- GATCCGTCTTGGGTTCTAACCTGTTGCGG (site GGTCCGGCTCC) — higher, 0.551
- GATCCTACTTGGGTTCTAACCTGTTGCCT (site GATCCTACTAG) — higher, 1.14
- GATCCTACTTGGGTTCTAACCTGTTGCCT (site GCTCCTACTAG) — within 0.2 log units, 0.0495
- GATCCTACTTGGGTTCTAACCTGTTGCCT (site GGTCCTACTAG) — higher, 0.346
- GATCCTACTTGGGTTCTAACCTGTTGCCT (site GTTCCTACTAG) — within 0.2 log units, 0.0681
- GATCGATCTTGGGTTCTAACCTGTTGCGT (site GATCGATCTAA) — within 0.2 log units, 0.197
- GATCGATCTTGGGTTCTAACCTGTTGCGT (site GATCGATCTAC) — higher, 1.46
- GATCGATCTTGGGTTCTAACCTGTTGCGT (site GATCGATCTAG) — within 0.2 log units, 0.284
- GATCGATCTTGGGTTCTAACCTGTTGCGT (site GATCGATCTAT) — within 0.2 log units, 0.265
- GATCTGCCTTGGGTTCTAACCTGTTGCCT (site GATCAGCCTAG) — within 0.2 log units, 0.246
- GATCTGCCTTGGGTTCTAACCTGTTGCCT (site GATCTGCCTAG) — higher, 0.984
- GATGGGACTTGGGTTCTAACCTGTTGCCG (site GATAGGACTAG) — within 0.2 log units, 0.0533
- GATGGGACTTGGGTTCTAACCTGTTGCCG (site GATGGGACTCG) — higher, 2.19
- GATGTGCCTTGGGTTCTAACCTGTTGCGT (site CCGCGAGCTCG) — within 0.2 log units, 0.0696
- GATGTGCCTTGGGTTCTAACCTGTTGCGT (site GATGTGCCTAC) — higher, 2.57
- GATTATGCTTGGGTTCTAACCTGTTGCCT (site GAGTATGCTAG) — within 0.2 log units, 0.259
- GATTATGCTTGGGTTCTAACCTGTTGCCT (site GATTATGCTAG) — higher, 0.615
- GATTCTACTTGGGTTCTAACCTGTTGCTT (site GAATCTACTAA) — within 0.2 log units, 0.155
- GATTCTACTTGGGTTCTAACCTGTTGCTT (site GACTCTACTAA) — within 0.2 log units, 0.22
- GATTCTACTTGGGTTCTAACCTGTTGCTT (site GAGTCTACTAA) — higher, 0.813
- GATTCTACTTGGGTTCTAACCTGTTGCTT (site GATTCTACTAA) — within 0.2 log units, 0.0583
- GATTTCGCTTGGGTTCTAACCTGTTGCCT (site ATCAGTTCTCA) — within 0.2 log units, 0.0643
- GATTTCGCTTGGGTTCTAACCTGTTGCCT (site GATTTCGCTAG) — higher, 0.42
- GCAAGCTCTTGGGTTCTAACCTGTTGCTA (site GCAAGCTCTTA) — higher, 1.3
